Measurements published in patent US20210353652A1, “TUMOR MICROENVIRONMENT-ACTIVATED DRUG-BINDER CONJUGATES, AND USES RELATED THERETO” (Trustees of Tufts College, priority 2018, published 2021).

Assays:
[1] = Acute toxicity study in Sprague Dawley rats; assay type: in vivo, rat; details: SD rats, subcutaneous
Protocol: The comparative in vivo safety of a representative linker-VbP pro-drug administered subcutaneously at a dose equivalent to 10-fold the maximum tolerated dose (MTD) of VbP was established in Sprague Dawley (SD) rats, i.e., 10 times the dose of VbP that […] of the SD rats.
Prior to administration, MAL-activated 6323 (PEGs-linker-VbP pro-drug) was conjugated to L-cysteine in order to inactivate the MAL moiety. L-cysteine (5 mg; Sigma) was dissolved in 1 mL of MAL-activated 6323 (4.8 mM in 50 mM MES, 150 mM NaCl, pH 6) to achieve an approximate stoichiometry of 10:1 L-cysteine:6323. The resulting solution was incubated at room temperature for 2-3 hours, after which time the reaction was confirmed to have reached completion by LC-MS analysis. The resulting Cys-modified 6323 was purified by preparative RP-HPLC using a Supelco Discovery C18 column with a 2:98 acetonitrile:water (0.1% TFA) gradient over 10 minutes, and was subsequently lyophilized.
Six (6) male SD rats (Charles River) were injected subcutaneously with 1.47 mg/kg Cys-modified 6323 (equivalent to 0.25 mg VbP/kg) in sterile PBS. […] In this study, the MTD for VbP was considered to be 0.025 mg VbP/kg. At 24 hours, 5 of the 6 animals administered Cys-modified 6323 at a dose equivalent to 10-times the VbP MTD survived, indicating a safety margin for the VbP pro-drug relative VbP.

AML cell lines = test: Pyroptosis in AML cell lines in vitro; assay type: cell-based
[2] = tested on: humanized PD-L1 MC38 tumour cell line; test: Humanised PD-L1 MC38 syngeneic model of colorectal cancer; assay type: in vivo; details: VbP 0.02 mg/mouse per os added to AVA04-251 Fc, compared to the monotherapy
Protocol: Mice (n=8/group, C57BL/6) were inoculated subcutaneously in the right flank region with a humanized PD-L1 MC38 tumour cell line (in which the mouse PD-L1 extracellular domain was replaced by the equivalent human domain; CrownBio Inc). AVA04-251 Fc and associated control (SQTgly Fc) were injected via the IP route once tumours were >80 mm^3. Treatments were administered twice a week for 3 weeks at a dose of 10 mg/kg (AVA04-251 Fc and its control, SQTgly Fc). VbP (Tufts University) was administered 5 times a week (with 2 days off) at 0.02 mg/mouse per os. Overall, tumour growth inhibition was shown for both treatments (FIG. 17).
Seventy (70) days after the inoculation of the tumour, three (3) mice from the group treated with AVA04-251 Fc and VbP were inoculated a second time with the huMC38 cell line (a control group was inoculated at the same time) to assess if the immune system developed a memory response, preventing subsequent tumor growth.

MV4-11 AML cells = test: MV4-11 AML model in NOD-SCID Il2rg-/- mice; assay type: in vivo, mouse; details: intraperitoneal once a day, 5 days on, 2 days off
Text: One million MV4-11 cells injected into the tail vein of 10-week-old female NOD-SCID Il2rg−/−mice.

J774A.1 cells = test: Pyroptosis (LDH release) in J774 mouse macrophage cell line; assay type: cell-based; details: 1 μM, 24 hours
Protocol: Affimer-linker-VbP pro-drugs are designed to be cleaved by FAPα to release VbP.
J774A.1 cells (mouse monocyte macrophages; ATCC) were grown in DMEM-10%-FBS in 75 cm^2 tissue culture flasks, harvested by scraping in PBS, resuspended in DMEM-1%-FBS, plated in 96-well plates (VWR) at a density of 5×10^3 cells per well, and placed in a 5% C02 incubator at 37° C. After incubation for 24 hours, serial 10-fold dilutions of VbP, unconjugated AVA04-182 Fc, linker-VbP pro-drugs (6325, 6326 and 6328), and Affimer-linker-VbP pro-drugs (AVA04-182 Fc-6325, −6326 and −6328) were added to wells with and without addition of rhFAPα (R&D Systems) at a final concentration of 25 nM. Each reaction mixture was tested in triplicate and incubated for a further 24 hours at 37° C. Lactate dehydrogenase (LDH; a marker of pyroptosis) released into culture supernatants, was measured using the CytoTox 96 Non-Radioactive Cytotoxicity Assay (Promega) according to the manufacturer's instructions. LDH concentrations were determined by absorbance (A490) measurements in a SpectraMax® M2^e microplate reader (Molecular Devices). Percent LDH release was calculated by subtracting the background release in wells containing DMEM-1%-FBS without cells and expressing the resulting values as percentages of the LDH released by the CytoTox 96 lysis reagent.

[3] = tested on: T cell response (BMDC co-cultured with allogenic CD4+ T cells); test: Mouse mixed lymphocyte reaction (MLR) assay; assay type: cell-based; details: ELISA of supernatant after 3 days of culture, in comparison to isotype control or SQTGly Fc
Protocol: A mouse mixed lymphocyte reaction (MLR) assay was performed to assess the ability of AVA04-182 Fc to modulate the T cell response. In this MLR assay, BMDC (bone marrow dendritic cells) were generated from the bone marrow of one (1) C57BL/6 mouse, cultured for seven (7) days in the presence of GM-CSF. Cells were then co-cultured with allogenic CD4+ T cells isolated from the spleen of a Balb/c mouse using negative selection. The MLR assay was performed in the presence or absence of the test products (AVA04-182 Fc, SQTgly Fc [SEQ ID NO: 120; Affimer Fc fusion without PD-L1 targeting], Avelumab and its isotype control, HuIgG1) and controls (anti-mouse PD-L1 clone 10F9.G2 and its isotype control, rat IgG2b). Test products were evaluated at three concentrations (700, 70 and 7 nM) and the controls at one concentration (70 nM). After 3 days of culture, cell culture supernatant was harvested and the secretion of interferon γ (IFNγ) and interleukin-2 (IL-2) was evaluated using ELISA. The anti-mouse PD-L1 and Avelumab induced an increase in IL-2 (data not shown) and IFNγ secretion, in comparison to their isotype controls (FIG. 4). Similarly, AVA04-182 Fc treatment led to an increase in IL-2 (data not shown) and IFNγ secretion at all concentrations tested, in comparison to SQTGly Fc (FIG. 4).

[4] = target: mouse PD-L1 Fc (R&D Systems) (mouse) (UniProt Q9EP73); test: PD-1/PD-L1 competitive ELISA: antibody preincubated with mouse PD-L1 Fc, then loaded on plate-coated mouse PD-1 Fc; % inhibition
Sequence of mouse PD-L1 Fc (R&D Systems) (mouse) (Q9EP73 19-238): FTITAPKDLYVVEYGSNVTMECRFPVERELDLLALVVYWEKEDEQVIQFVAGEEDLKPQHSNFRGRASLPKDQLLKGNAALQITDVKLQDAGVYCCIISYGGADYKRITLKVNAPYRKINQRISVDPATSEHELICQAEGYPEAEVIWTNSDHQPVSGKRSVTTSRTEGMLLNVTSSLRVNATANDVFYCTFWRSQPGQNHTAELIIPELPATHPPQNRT

[5] = target: T1, human PD-L1 Fc (R&D Systems) chimeric protein (human, UniProt Q9NZQ7 19-239); test: binding ELISA on plate-coated human PD-L1 Fc, detection with biotinylated anti-cystatin A and streptavidin-HRP; the table gives no unit, nM is the x axis of the curve
T1 construct: Bought reagent; also called human PD-L1 Fe; not shown: Fc part of the bought R&D Systems chimera
T1 sequence (Q9NZQ7 19-239, change not shown): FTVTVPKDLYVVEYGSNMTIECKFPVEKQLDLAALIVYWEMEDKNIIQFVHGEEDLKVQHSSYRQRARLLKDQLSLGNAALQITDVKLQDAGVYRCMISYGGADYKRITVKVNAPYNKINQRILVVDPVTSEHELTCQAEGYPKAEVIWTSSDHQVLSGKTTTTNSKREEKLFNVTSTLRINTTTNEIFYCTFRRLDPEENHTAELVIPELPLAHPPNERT

Q: For CC(C)[C@H](N)C(=O)N1CCC[C@H]1B(O)O [VbP, Val-boroPro], which MTD [1] is on record?
A: 0.025 mg VbP/kg

Q: And the Induction of pyroptosis (AML cell lines)?
A: induces pyroptosis

Q: What about the “Escape of tumour growth at Day 13” value [2] of the same molecule?
A: none of the mice showed escape of tumour growth

Q: And the “Efficacy against MV4-11 AML cells in vivo” value (MV4-11 AML cells)?
A: demonstrates efficacy

Q: What about the “LDH release in the presence of rhFAPα” value (J774A.1 cells; 25 nM rhFAPα) of the same molecule?
A: significant LDH release

Q: What about the “LDH release in the absence of rhFAPα” value (J774A.1 cells; no rhFAPα) of the same molecule?
A: significant LDH release

Q: Which IFNγ secretion [3] does the source give for Avelumab: anti-PD-L1 antibody here?
A: increase

Q: And the IL-2 secretion ([3]; data not shown)?
A: increase

Q: For Anti muPD-L1 (10F9.G2) (antibody), which IC50 [4] is on record?
A: 0.692 nM

B1: AVA04-251 BH cys-800 (designed binder)
chain: MIPRGLSEAKPATPEIQEIVDKVKPQLEEKTNETYGKLEAVQYKTQVLAREGRQDWVLSTNYYIKVRAGDNKYMHLKVFNGPWVPFPHQQLADRVLTGYQVDKNKDDELTGFAEAAAKEAAAKEAAAKEAAAKEAAAKEAAAKMIPRGLSEAKPATPEIQEIVDKVKPQLEEKTNETYGKLEAVQYKTQVLAREGRQDWVLSTNYYIKVRAGDNKYMHLKVFNGPWVPFPHQQLADRVLTGYQVDKNKDDELTGFLQAAAHHHHHHC
modifications: IRDye 800CW conjugated with maleimide chemistry (to the single Cys residue)
notes: Dye conjugate of m3; also called conjugated Affimer
Q: For B1, which EC50 [5] is on record?
A: 0.0904 nM

B2: AVA04-251 BH cys (designed binder)
chain: MIPRGLSEAKPATPEIQEIVDKVKPQLEEKTNETYGKLEAVQYKTQVLAREGRQDWVLSTNYYIKVRAGDNKYMHLKVFNGPWVPFPHQQLADRVLTGYQVDKNKDDELTGFAEAAAKEAAAKEAAAKEAAAKEAAAKEAAAKMIPRGLSEAKPATPEIQEIVDKVKPQLEEKTNETYGKLEAVQYKTQVLAREGRQDWVLSTNYYIKVRAGDNKYMHLKVFNGPWVPFPHQQLADRVLTGYQVDKNKDDELTGFLQAAAHHHHHHC
notes: Produced in E. coli BL21; also called parental molecule
Q: With B2 as the molecule, how does the EC50 [5] read?
A: 0.0355 nM
